{"source": "paper PMC11649784", "about": "“Re-design and evaluation of diclofenac-based carborane-substituted prodrugs and their anti-cancer potential” (Scientific Reports, 2024)", "key": {"human recombinant COX-2": {"biological_target": "T1, human recombinant COX-2 (Homo sapiens, UniProt P35354)", "T1 construct": "purchased Cayman Chemical Company, Ann Arbor, MI, USA", "T1 sequence (P35354 18-604)": "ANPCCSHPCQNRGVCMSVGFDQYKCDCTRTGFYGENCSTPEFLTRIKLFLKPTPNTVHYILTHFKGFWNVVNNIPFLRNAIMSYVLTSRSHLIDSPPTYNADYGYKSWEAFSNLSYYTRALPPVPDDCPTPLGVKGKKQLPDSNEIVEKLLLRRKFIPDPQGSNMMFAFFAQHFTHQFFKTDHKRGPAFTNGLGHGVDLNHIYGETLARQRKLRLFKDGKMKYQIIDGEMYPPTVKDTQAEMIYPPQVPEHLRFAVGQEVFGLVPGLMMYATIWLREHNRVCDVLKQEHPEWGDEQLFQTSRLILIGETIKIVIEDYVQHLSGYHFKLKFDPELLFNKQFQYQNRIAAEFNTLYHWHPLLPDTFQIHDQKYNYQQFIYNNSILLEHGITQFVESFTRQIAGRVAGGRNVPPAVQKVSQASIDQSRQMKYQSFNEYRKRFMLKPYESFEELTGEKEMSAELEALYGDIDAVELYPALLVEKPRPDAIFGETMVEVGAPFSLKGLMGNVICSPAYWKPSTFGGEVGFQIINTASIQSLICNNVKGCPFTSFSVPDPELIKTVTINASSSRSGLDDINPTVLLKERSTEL", "assay": "COX Fluorescent Inhibitor Screening Assay, COX-2", "assay_type": "biochemical", "experimental": "The COX inhibition activity against ovine COX-1 and human recombinant COX-2 was determined using the COX Fluorescent Inhibitor Screening Assay Kit (Cayman Chemical Company, Ann Arbor, MI, USA) according to the manufacturer’s instructions as reported."}, "MC38 cells [1]": {"system": "MC38 cells", "assay": "ApoStat caspase activity, flow cytometry", "assay_type": "cell-based, murine", "details": "IC50 concentration, 72 h", "experimental": "For all flow cytometric analyses, MC38 cells were seeded overnight and then treated with the IC50 concentration of compound 3 for 72 h. The cells were harvested, washed, and stained according to the manufacturer’s instructions for each method. To determine whether the compound induces apoptosis, cells were double stained with AnnV-FITC and PI (15 μg mL^–1) for 15 min at RT in the dark. To detect caspase activity, cells were stained with the FITC-conjugated caspase inhibitor ApoStat for 30 min at [drawing 162] . To detect cell proliferation, MC38 cells were stained with CFSE (1 μM) for 10 min at [drawing 163] prior to seeding and then treated as previously described. To detect intracellular production of Reactive oxygen/nitrogen Species (ROS/RNS), MC38 cells were prestained with DHR 123 (1 [drawing 164] M) for 20 min at [drawing 165] , then seeded and exposed to an IC50 concentration of compound 3. After 72 h incubation, all samples were washed, resuspended in PBS and fluorescence intensity was analyzed using a CytoFLEX [drawing 166] flow cytometer (Beckman Coulter, Pasadena, CA, USA), while the data obtained was evaluated using the [drawing 167] software program."}, "MC38 cells [2]": {"system": "MC38 cells", "assay": "PI staining of fixed cells, fluorescence microscopy", "assay_type": "cell-based, murine", "details": "IC50 concentration, 72 h", "experimental": "(§1) For morphological assessment of cell nuclei, MC38 cells were seeded overnight in 2-well chamber slides and then treated with the IC50 concentration of compound 3 for 72 h. At the end of the incubation period, cells were fixed with 4 [drawing 168] PFA for 15 min at RT. Staining of cells was performed with PI solution (0.1 [drawing 169] Triton X-100, 0.5 M EDTA pH 8, 50 μg mL^− 1 RNase, and 50 [drawing 170] mL^− 1 PI - final concentrations in PBS) for 1–2 min at RT. After washing in PBS, the cells were mounted in a fluorescence microscopy medium (Fluoromount- [drawing 171] , eBioscience, San Diego, CA, USA). The slides were analyzed with a ZeissAxio Observer Z1 inverted fluorescence microscope (Carl Zeiss AG, Oberkochen, Germany) at 400 [drawing 172] magnification. For the detection of autophagosomes, AO staining of cells seeded in 2-well chamber slides was applied. […] The dye was then removed, the cells were rinsed with PBS and immediately evaluated via fluorescence microscopy at 400 [drawing 175] magnification using the Leica DM4 B microscope equipped with a DFC7000 T camera (Leica Microsystems CMS GmbH, Wetzlar, Germany)."}, "MC38 cells [3]": {"system": "MC38 cells", "assay": "Acridine orange staining for autophagosomes", "assay_type": "cell-based, murine", "details": "IC50 concentration, 72 h", "experimental": "as §1"}}, "data": [{"substance": "1-[2-(7,8-dicarba-nido-undecaborate)]- [drawing 126] H-indolium-2-amine [compound 3]", "values": [{"measurement": "%Inh. @ 100 μM (n = 2) COX-2", "setting": "human recombinant COX-2; 100 μM", "value": 105, "unit": "%"}, {"measurement": "IC50", "setting": "human recombinant COX-2; absolute IC50, 0.1 to 100 μM in duplicate, 95% CI in brackets", "value": 4.58, "unit": "µM"}, {"measurement": "COX inhibition, in words", "setting": "human recombinant COX-2; in vitro COX assay, COX-1 and COX-2", "value": "moderately active COX-inhibitors"}, {"measurement": "SI1/2 = IC50(COX-1)/IC50(COX-2)", "setting": "human recombinant COX-2; selectivity index", "value": 3.3}, {"measurement": "total caspase activity vs controls", "setting": "MC38 cells [1]", "value": "no significant change in total caspase activity"}, {"measurement": "nuclear morphology (PI staining)", "setting": "MC38 cells [2]", "value": "moderate involvement of apoptotic cells"}, {"measurement": "autophagosomes in the cytoplasm (acridine orange)", "setting": "MC38 cells [3]", "value": "intensified presence of autophagosomes"}]}]}
